From ChEMBL document CHEMBL5131391, “One-pot three-component synthesis of novel pyrazolo[3,4-b]pyridines as potent antileukemic agents” (Eur J Med Chem, 2022)

Experiments:
Assay type in all cases: functional
[1] = tested on: A549; test: Cytostatic activity in human A549 cells assessed as tumor growth inhibition measured after 48 hrs by NCI protocol based SRB assay
[2] = tested on: K562; test: Antiproliferative activity against human K562 cells assessed as growth inhibition measured after 48 hrs by NCI protocol based SRB assay
[3] = tested on: ACHN; test: Cytostatic activity in human ACHN cells assessed as tumor growth inhibition measured after 48 hrs by NCI protocol based SRB assay
[4] = tested on: NCI-H322M; test: Cytostatic activity in human NCI-H322M cells assessed as tumor growth inhibition measured after 48 hrs by NCI protocol based SRB assay
[5] = tested on: MDA-MB-468; test: Cytostatic activity in human MDA-MB-468 cells assessed as tumor growth inhibition measured after 48 hrs by NCI protocol based SRB assay
[6] = tested on: HL-60(TB); test: Antiproliferative activity against human HL-60(TB) cells assessed as growth inhibition measured after 48 hrs by NCI protocol based SRB assay
[7] = tested on: NCI-H23; test: Antiproliferative activity against human NCI-H23 cells assessed as growth inhibition measured after 48 hrs by NCI protocol based SRB assay
[8] = tested on: HCC 2998; test: Antiproliferative activity against human HCC 2998 cells assessed as growth inhibition measured after 48 hrs by NCI protocol based SRB assay
[9] = tested on: SNB-19; test: Antiproliferative activity against human SNB-19 cells assessed as growth inhibition measured after 48 hrs by NCI protocol based SRB assay
[10] = tested on: U-251; test: Antiproliferative activity against human U-251 cells assessed as growth inhibition measured after 48 hrs by NCI protocol based SRB assay
[11] = tested on: SN12C; test: Cytostatic activity in human SN12C cells assessed as tumor growth inhibition measured after 48 hrs by NCI protocol based SRB assay
[12] = tested on: NCI/ADR-RES; test: Cytostatic activity in human NCl/ADR-RES cells assessed as tumor growth inhibition measured after 48 hrs by NCI protocol based SRB assay
[13] = tested on: SR; test: Cytostatic activity in human SR cells assessed as tumor growth inhibition measured after 48 hrs by NCI protocol based SRB assay
[14] = tested on: Malme-3M; test: Antiproliferative activity against human Malme-3M cells assessed as growth inhibition measured after 48 hrs by NCI protocol based SRB assay
[15] = tested on: NCI-H522; test: Cytostatic activity in human NCI-H522 cells assessed as tumor growth inhibition measured after 48 hrs by NCI protocol based SRB assay
[16] = tested on: CCRF-CEM; test: Cytostatic activity in human CCRF-CEM cells assessed as tumor growth inhibition measured after 48 hrs by NCI protocol based SRB assay
[17] = tested on: IGROV-1; test: Cytostatic activity in human IGROV-1 cells assessed as tumor growth inhibition measured after 48 hrs by NCI protocol based SRB assay
[18] = tested on: KM12; test: Cytostatic activity in human KM12 cells assessed as tumor growth inhibition measured after 48 hrs by NCI protocol based SRB assay
[19] = tested on: SK-MEL-28; test: Antiproliferative activity against human SK-MEL-28 cells assessed as growth inhibition measured after 48 hrs by NCI protocol based SRB assay
[20] = tested on: SK-MEL-28; test: Cytostatic activity in human SK-MEL-28 cells assessed as tumor growth inhibition measured after 48 hrs by NCI protocol based SRB assay
[21] = tested on: UACC-62; test: Cytostatic activity in human UACC-62 cells assessed as tumor growth inhibition measured after 48 hrs by NCI protocol based SRB assay
[22] = tested on: NCI/ADR-RES; test: Antiproliferative activity against human NCl/ADR-RES cells assessed as growth inhibition measured after 48 hrs by NCI protocol based SRB assay
[23] = tested on: OVCAR-4; test: Antiproliferative activity against human OVCAR-4 cells assessed as growth inhibition measured after 48 hrs by NCI protocol based SRB assay
[24] = tested on: NCI-H522; test: Antiproliferative activity against human NCI-H522 cells assessed as growth inhibition measured after 48 hrs by NCI protocol based SRB assay
[25] = tested on: COLO 205; test: Antiproliferative activity against human COLO 205 cells assessed as growth inhibition measured after 48 hrs by NCI protocol based SRB assay
[26] = tested on: EKVX; test: Antiproliferative activity against human EKVX cells assessed as growth inhibition measured after 48 hrs by NCI protocol based SRB assay
[27] = tested on: OVCAR-4; test: Cytostatic activity in human OVCAR-4 cells assessed as tumor growth inhibition measured after 48 hrs by NCI protocol based SRB assay
[28] = tested on: PC-3; test: Cytostatic activity in human PC-3 cells assessed as tumor growth inhibition measured after 48 hrs by NCI protocol based SRB assay
[29] = tested on: NCI-H23; test: Cytostatic activity in human NCI-H23 cells assessed as tumor growth inhibition measured after 48 hrs by NCI protocol based SRB assay
[30] = tested on: COLO 205; test: Cytostatic activity in human COLO 205 cells assessed as tumor growth inhibition measured after 48 hrs by NCI protocol based SRB assay
[31] = tested on: CAKI-1; test: Antiproliferative activity against human CAKI-1 cells assessed as growth inhibition measured after 48 hrs by NCI protocol based SRB assay
[32] = tested on: SR; test: Antiproliferative activity against human SR cells assessed as growth inhibition measured after 48 hrs by NCI protocol based SRB assay
[33] = tested on: BT-549; test: Cytostatic activity in human BT-549 cells assessed as tumor growth inhibition measured after 48 hrs by NCI protocol based SRB assay
[34] = tested on: LOX IMVI; test: Cytostatic activity in human LOX IMVI cells assessed as tumor growth inhibition measured after 48 hrs by NCI protocol based SRB assay
[35] = tested on: SNB-19; test: Cytostatic activity in human SNB-19 cells assessed as tumor growth inhibition measured after 48 hrs by NCI protocol based SRB assay
[36] = tested on: CAKI-1; test: Cytostatic activity in human CAKI-1 cells assessed as tumor growth inhibition measured after 48 hrs by NCI protocol based SRB assay
[37] = tested on: SF-295; test: Cytostatic activity in human SF-295 cells assessed as tumor growth inhibition measured after 48 hrs by NCI protocol based SRB assay
[38] = tested on: UACC-62; test: Antiproliferative activity against human UACC-62 cells assessed as growth inhibition measured after 48 hrs by NCI protocol based SRB assay
[39] = tested on: SF-539; test: Cytostatic activity in human SF-539 cells assessed as tumor growth inhibition measured after 48 hrs by NCI protocol based SRB assay
[40] = tested on: SK-OV-3; test: Antiproliferative activity against human SK-OV-3 cells assessed as growth inhibition measured after 48 hrs by NCI protocol based SRB assay
[41] = read-out: LC50 (the source's name)

**Q.** For N#Cc1c(-c2ccccc2)nc2c(c(-c3ccccc3)nn2-c2ccccc2)c1-c1ccc(O)cc1, which TGI [1] is on record?
**A.** Its TGI is 6.87 µM.

**Q.** And the GI50 [2]?
**A.** The GI50 was 2.68 µM.

**Q.** And the CC50 [2, 41]?
**A.** The CC50 was greater than 100 µM.

**Q.** What about the TGI [3] of the same molecule?
**A.** Its TGI is 5.89 µM.

**Q.** And the TGI [4]?
**A.** Its TGI is 2.96 µM.

**Q.** What about the TGI [5] of the same molecule?
**A.** Its TGI is 5.57 µM.

**Q.** And the GI50 [6]?
**A.** The GI50 was 3.52 µM.

**Q.** And the CC50 [6, 41]?
**A.** The CC50 was greater than 100 µM.

**Q.** And the GI50 [7]?
**A.** Its GI50 is 1.78 µM.

**Q.** What about the CC50 [7, 41] of the same molecule?
**A.** The CC50 was 8.26 µM.

**Q.** And the GI50 [8]?
**A.** The GI50 was 1.84 µM.

**Q.** What about the CC50 [8, 41] of the same molecule?
**A.** The CC50 was 6.53 µM.

**Q.** What about the GI50 [9] of the same molecule?
**A.** The GI50 was 1.9 µM.

**Q.** And the CC50 [9, 41]?
**A.** The CC50 was 7.57 µM.

**Q.** And the GI50 [10]?
**A.** Its GI50 is 1.63 µM.

**Q.** What about the CC50 [10, 41] of the same molecule?
**A.** Its CC50 is 9.71 µM.

**Q.** And the TGI [11]?
**A.** Its TGI is 3.04 µM.

**Q.** And the TGI [12]?
**A.** The TGI was 5.62 µM.

**Q.** What about the TGI [13] of the same molecule?
**A.** The TGI was greater than 100 µM.

**Q.** And the GI50 [14]?
**A.** Its GI50 is 1.62 µM.

**Q.** What about the CC50 [14, 41] of the same molecule?
**A.** The CC50 was 9.06 µM.

**Q.** What about the TGI [15] of the same molecule?
**A.** The TGI was 6.03 µM.

**Q.** What about the TGI [16] of the same molecule?
**A.** Its TGI is 13.4 µM.

**Q.** And the TGI [17]?
**A.** Its TGI is 3.62 µM.

**Q.** And the TGI [18]?
**A.** The TGI was 4.76 µM.

**Q.** What about the GI50 [19] of the same molecule?
**A.** The GI50 was 1.58 µM.

**Q.** And the CC50 [19, 41]?
**A.** The CC50 was 5.86 µM.

**Q.** What about the TGI [20] of the same molecule?
**A.** Its TGI is 3.05 µM.

**Q.** What about the TGI [21] of the same molecule?
**A.** Its TGI is 3.18 µM.

**Q.** And the GI50 [22]?
**A.** The GI50 was 2.27 µM.

**Q.** What about the CC50 [22, 41] of the same molecule?
**A.** The CC50 was 2.95 µM.

**Q.** And the GI50 [23]?
**A.** The GI50 was 1.95 µM.

**Q.** And the CC50 [23, 41]?
**A.** Its CC50 is 12.8 µM.

**Q.** And the GI50 [24]?
**A.** Its GI50 is 2.32 µM.

**Q.** And the CC50 [24, 41]?
**A.** The CC50 was greater than 100 µM.

**Q.** And the GI50 [25]?
**A.** Its GI50 is 2.61 µM.

**Q.** What about the CC50 [25, 41] of the same molecule?
**A.** The CC50 was 58.2 µM.

**Q.** And the GI50 [26]?
**A.** Its GI50 is 1.92 µM.

**Q.** And the CC50 [26, 41]?
**A.** The CC50 was 21.9 µM.

**Q.** And the TGI [27]?
**A.** The TGI was 4.66 µM.

**Q.** What about the TGI [28] of the same molecule?
**A.** The TGI was 3.78 µM.

**Q.** And the TGI [29]?
**A.** Its TGI is 3.84 µM.

**Q.** What about the TGI [30] of the same molecule?
**A.** The TGI was 6.31 µM.

**Q.** What about the GI50 [31] of the same molecule?
**A.** The GI50 was 2.48 µM.

**Q.** And the CC50 [31, 41]?
**A.** Its CC50 is 23.8 µM.

**Q.** What about the GI50 [32] of the same molecule?
**A.** Its GI50 is 2.95 µM.

**Q.** And the CC50 [32, 41]?
**A.** Its CC50 is greater than 100 µM.

**Q.** What about the TGI [33] of the same molecule?
**A.** The TGI was 4.45 µM.

**Q.** And the TGI [34]?
**A.** The TGI was 3.05 µM.

**Q.** What about the TGI [35] of the same molecule?
**A.** Its TGI is 3.8 µM.

**Q.** What about the TGI [36] of the same molecule?
**A.** Its TGI is 6.7 µM.

**Q.** What about the TGI [37] of the same molecule?
**A.** Its TGI is 4.29 µM.

**Q.** What about the GI50 [38] of the same molecule?
**A.** Its GI50 is 1.7 µM.

**Q.** What about the CC50 [38, 41] of the same molecule?
**A.** The CC50 was 5.93 µM.

**Q.** And the TGI [39]?
**A.** Its TGI is 2.76 µM.

**Q.** What about the GI50 [40] of the same molecule?
**A.** Its GI50 is 2.87 µM.

**Q.** What about the CC50 [40, 41] of the same molecule?
**A.** The CC50 was 2.98 µM.
